Laboratory results reported in ChEMBL document CHEMBL1201862, “PubChem BioAssay data set” (2004).
Activity calls are given as the source filed them.

What was measured:
Assay type in all cases: functional
[1] = target: Receptor-type tyrosine-protein kinase FLT3 (Homo sapiens, UniProt P36888);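 also: FLT3 was tested as one member of a kinome-wide kinase panel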
[2] = target: Cyclin-dependent kinase 2 (Homo sapiens, UniProt P24941);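 also: CDK2 measured as one member of a broad kinome profiling panel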
[3] = target: Calcium/calmodulin-dependent protein kinase type II subunit delta (Homo sapiens, UniProt Q13557)
[4] = target: Vascular endothelial growth factor receptor 3 (Homo sapiens, UniProt P35916);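 also: value from a kinome-wide profiling panel, with FLT4 as the panel member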
Vascular endothelial growth factor receptor 3, sequence (P35916 whole entry): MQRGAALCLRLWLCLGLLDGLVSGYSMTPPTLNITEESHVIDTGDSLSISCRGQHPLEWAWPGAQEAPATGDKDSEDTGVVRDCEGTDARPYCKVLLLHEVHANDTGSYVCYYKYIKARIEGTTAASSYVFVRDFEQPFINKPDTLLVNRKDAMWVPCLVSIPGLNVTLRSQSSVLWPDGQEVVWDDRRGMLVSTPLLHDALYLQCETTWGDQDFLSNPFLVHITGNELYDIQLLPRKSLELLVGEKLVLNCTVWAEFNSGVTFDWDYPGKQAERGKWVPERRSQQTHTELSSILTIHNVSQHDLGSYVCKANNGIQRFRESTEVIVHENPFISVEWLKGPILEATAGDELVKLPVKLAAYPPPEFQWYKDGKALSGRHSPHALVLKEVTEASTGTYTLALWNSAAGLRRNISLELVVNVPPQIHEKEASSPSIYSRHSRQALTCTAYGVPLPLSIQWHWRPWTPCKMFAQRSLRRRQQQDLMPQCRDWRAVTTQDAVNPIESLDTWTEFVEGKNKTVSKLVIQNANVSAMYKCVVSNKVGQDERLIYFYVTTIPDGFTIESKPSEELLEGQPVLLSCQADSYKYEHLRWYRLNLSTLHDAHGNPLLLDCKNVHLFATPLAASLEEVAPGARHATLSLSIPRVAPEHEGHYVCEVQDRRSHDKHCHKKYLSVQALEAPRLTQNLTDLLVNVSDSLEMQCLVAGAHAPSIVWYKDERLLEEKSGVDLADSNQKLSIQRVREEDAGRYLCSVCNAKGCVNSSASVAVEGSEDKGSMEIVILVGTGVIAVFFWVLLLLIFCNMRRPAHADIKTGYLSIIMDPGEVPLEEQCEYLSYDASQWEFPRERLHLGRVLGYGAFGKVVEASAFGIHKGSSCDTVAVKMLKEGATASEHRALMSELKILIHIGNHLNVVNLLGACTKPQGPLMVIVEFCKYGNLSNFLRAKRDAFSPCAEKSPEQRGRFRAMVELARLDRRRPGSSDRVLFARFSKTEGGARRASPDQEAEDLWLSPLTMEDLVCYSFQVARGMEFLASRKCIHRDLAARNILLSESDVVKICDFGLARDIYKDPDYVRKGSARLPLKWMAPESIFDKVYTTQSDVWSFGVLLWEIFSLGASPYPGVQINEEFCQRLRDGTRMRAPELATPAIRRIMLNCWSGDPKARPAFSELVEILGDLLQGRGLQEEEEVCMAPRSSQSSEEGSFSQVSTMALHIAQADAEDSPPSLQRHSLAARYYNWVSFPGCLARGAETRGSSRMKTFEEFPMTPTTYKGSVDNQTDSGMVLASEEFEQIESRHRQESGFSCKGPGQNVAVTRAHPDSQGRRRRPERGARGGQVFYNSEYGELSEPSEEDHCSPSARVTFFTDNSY

[5] = target: Mitogen-activated protein kinase kinase kinase 20 (Homo sapiens, UniProt Q9NYL2)
Mitogen-activated protein kinase kinase kinase 20, sequence (Q9NYL2 whole entry): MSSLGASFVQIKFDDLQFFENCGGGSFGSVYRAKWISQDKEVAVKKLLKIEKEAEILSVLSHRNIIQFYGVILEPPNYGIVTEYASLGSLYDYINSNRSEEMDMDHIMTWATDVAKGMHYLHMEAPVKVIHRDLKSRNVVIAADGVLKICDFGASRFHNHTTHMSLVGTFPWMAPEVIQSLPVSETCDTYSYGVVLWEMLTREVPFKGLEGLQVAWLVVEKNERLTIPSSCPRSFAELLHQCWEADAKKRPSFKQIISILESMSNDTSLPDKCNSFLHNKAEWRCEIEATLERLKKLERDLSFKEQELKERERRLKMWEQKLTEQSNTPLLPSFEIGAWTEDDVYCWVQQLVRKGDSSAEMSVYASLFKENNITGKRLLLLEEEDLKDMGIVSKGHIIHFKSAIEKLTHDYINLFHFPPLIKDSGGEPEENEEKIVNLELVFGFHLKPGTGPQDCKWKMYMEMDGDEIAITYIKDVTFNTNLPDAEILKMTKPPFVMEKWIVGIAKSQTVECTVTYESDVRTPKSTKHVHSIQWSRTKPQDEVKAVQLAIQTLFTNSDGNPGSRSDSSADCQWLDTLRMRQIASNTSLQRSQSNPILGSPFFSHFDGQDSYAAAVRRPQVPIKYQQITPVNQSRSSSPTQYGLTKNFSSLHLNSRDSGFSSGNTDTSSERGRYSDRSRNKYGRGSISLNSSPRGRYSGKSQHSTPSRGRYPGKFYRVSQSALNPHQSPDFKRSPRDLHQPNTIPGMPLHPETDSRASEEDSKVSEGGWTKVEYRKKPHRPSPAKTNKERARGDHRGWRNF

[6] = target: Dual specificity tyrosine-phosphorylation-regulated kinase 1A (Homo sapiens, UniProt Q13627);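 also: measured against DYRK1A as one member of a broad kinome profiling panel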
[7] = target: Homeodomain-interacting protein kinase 4 (Homo sapiens, UniProt Q8NE63)
[8] = target: Serine/threonine-protein kinase D3 (Homo sapiens, UniProt O94806);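 also: determined within a kinase panel screen, with PRKCN as the panel member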
Serine/threonine-protein kinase D3, sequence (O94806 whole entry): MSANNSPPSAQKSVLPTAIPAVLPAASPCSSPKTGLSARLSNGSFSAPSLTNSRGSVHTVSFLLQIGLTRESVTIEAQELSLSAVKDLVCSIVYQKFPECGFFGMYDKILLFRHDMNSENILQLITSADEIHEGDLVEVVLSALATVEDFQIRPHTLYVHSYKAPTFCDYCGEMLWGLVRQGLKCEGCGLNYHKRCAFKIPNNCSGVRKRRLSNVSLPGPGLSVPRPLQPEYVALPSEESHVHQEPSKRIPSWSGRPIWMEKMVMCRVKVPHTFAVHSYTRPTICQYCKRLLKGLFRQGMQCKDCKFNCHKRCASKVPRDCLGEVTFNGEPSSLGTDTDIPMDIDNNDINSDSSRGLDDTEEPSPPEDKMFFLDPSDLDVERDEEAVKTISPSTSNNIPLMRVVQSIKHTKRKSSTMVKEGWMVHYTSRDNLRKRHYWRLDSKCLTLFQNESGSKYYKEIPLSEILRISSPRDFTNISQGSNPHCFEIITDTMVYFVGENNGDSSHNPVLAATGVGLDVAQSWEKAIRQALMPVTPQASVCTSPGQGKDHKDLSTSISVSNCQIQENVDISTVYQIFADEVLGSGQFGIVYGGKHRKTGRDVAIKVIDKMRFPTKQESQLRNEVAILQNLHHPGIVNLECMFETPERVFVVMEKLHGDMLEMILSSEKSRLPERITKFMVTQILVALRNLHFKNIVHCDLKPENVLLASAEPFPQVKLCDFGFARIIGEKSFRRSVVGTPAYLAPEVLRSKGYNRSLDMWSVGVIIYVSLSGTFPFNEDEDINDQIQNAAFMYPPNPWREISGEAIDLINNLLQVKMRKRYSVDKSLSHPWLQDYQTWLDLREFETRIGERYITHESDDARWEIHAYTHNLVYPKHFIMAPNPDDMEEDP

[9] = target: Tyrosine-protein kinase Srms (Homo sapiens, UniProt Q9H3Y6);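 also: SRMS measured as one member of a kinome-wide kinase profiling panel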
[10] = target: Serine/threonine-protein kinase PLK4 (Homo sapiens, UniProt O00444);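 also: PLK4 measured as one member of a kinome-wide kinase profiling panel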
Serine/threonine-protein kinase PLK4, sequence (O00444 whole entry): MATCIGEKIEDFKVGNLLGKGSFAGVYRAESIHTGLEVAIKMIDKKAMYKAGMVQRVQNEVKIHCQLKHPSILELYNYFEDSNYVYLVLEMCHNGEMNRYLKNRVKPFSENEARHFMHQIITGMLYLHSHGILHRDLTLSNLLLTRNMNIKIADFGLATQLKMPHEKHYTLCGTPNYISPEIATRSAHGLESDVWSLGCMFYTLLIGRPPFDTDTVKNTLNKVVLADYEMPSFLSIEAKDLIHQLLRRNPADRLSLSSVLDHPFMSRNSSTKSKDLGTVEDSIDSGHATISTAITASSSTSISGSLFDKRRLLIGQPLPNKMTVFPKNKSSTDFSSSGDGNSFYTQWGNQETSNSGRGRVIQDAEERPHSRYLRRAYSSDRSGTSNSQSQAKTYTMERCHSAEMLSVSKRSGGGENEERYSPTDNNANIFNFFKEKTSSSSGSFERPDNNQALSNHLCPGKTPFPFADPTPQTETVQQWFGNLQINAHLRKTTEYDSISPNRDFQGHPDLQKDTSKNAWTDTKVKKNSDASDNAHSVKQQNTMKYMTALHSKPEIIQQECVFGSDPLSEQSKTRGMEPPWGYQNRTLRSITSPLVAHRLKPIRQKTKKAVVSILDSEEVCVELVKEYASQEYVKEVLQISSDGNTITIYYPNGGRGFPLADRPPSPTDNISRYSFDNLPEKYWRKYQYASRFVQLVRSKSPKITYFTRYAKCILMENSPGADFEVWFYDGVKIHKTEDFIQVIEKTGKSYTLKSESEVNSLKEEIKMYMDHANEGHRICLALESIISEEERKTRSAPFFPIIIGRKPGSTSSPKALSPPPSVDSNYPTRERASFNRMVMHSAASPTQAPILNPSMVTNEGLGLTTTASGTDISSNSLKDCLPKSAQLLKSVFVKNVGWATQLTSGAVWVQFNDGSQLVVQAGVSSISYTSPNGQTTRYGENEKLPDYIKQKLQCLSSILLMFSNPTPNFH

Measured: Ki

Receptor-type tyrosine-protein kinase FLT3, sequence (P36888 whole entry): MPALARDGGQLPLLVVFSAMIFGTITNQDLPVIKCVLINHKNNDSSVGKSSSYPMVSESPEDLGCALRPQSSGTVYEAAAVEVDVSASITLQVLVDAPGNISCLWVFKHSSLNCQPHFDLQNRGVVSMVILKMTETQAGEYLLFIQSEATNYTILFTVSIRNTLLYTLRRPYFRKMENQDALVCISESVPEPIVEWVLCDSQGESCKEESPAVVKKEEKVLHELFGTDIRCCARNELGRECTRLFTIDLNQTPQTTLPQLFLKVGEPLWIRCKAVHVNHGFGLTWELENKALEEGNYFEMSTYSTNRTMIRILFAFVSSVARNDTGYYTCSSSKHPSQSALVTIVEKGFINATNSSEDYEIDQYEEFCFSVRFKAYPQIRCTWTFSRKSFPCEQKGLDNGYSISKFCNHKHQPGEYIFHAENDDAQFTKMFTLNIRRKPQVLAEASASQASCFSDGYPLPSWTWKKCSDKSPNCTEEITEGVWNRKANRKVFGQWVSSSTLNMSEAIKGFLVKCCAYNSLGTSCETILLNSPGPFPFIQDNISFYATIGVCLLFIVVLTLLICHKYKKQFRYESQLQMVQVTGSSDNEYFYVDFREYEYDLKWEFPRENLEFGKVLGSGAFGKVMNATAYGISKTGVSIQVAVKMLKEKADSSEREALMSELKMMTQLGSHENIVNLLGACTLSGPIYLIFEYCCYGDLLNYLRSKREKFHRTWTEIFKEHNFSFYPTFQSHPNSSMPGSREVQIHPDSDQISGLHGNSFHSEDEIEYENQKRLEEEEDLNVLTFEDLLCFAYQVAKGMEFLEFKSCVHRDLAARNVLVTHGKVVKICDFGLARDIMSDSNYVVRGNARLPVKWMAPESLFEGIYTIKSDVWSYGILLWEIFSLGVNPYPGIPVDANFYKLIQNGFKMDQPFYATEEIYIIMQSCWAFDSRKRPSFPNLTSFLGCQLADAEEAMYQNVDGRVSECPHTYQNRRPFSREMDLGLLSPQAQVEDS

Oc1c2ccccc2c2c3c(cccc13)N=N2 [SP-600125]
active: [1] 50.1 nM | [2] 79.4 nM | [3] 1000 nM | [4] 15.8 nM | [5] 501 nM | [6] 126 nM | [7] 2000 nM | [8] 100 nM | [10] 200 nM
inactive: [9] > 1580 nM
